The values below are quoted from earlier work in PubChem BioAssay AID1259409 (Chemical Carcinogenesis Research Information System (CCRIS), 2018).

Structures are written as SMILES.

The subject of this data set is rodent chemically induced tumor inhibition, incidence and multiplicity. Put plainly: CCRIS tumor inhibitor studies. The note with it: Route [Inhibitor]: ORAL.

For `Cn1c(=O)c2c(ncn2C)n(C)c1=O`, the “tumour outcome (control, treated, inhibition, significance)” value runs as follows: (Carcinogen: 2-AMINO-1-METHYL-6-PHENYLIMIDAZO[4,5-B]PYRIDINE [105650-23-5], Dose [Inhibitor]: 0.1% IN DRINKING WATER FOR 54 WK (STUDY DURATION: 54 WK), Species: RAT, Strain/Sex: F344/DUCRJ/FEMALE, Target Tissue: Type of Lesion: MAMMARY GLAND: ADENOMA OR ADENOCARCINOMA, Dose [Carcinogen]: 0.02% IN DIET FOR 54 WK (STUDY DURATION: 54 WK), Promoter: NONE) 8/20 (40%), 2/20 (10%), 75%, p<0.05; (Carcinogen: 4-(METHYLNITROSAMINO)-1-(3-PYRIDYL)-1-BUTANONE, 64091-91-4, Dose [Inhibitor]: 0, 1120 MG IN DRINKING WATER FOR 13 WK BEGINNING 2 WK PRIOR TO CARCINOGEN TREATMENT (STUDY DURATION: 18 WK), Species: MOUSE, Strain/Sex: STRAIN-A/FEMALE, Target Tissue: Type of Lesion: LUNG: ADENOMA, Dose [Carcinogen]: 11.65 MG/KG 3/WK FOR 10 WK, Promoter: NONE USED) 100%, 100%, 0%, not significant; (Carcinogen: 4-(METHYLNITROSAMINO)-1-(3-PYRIDYL-1-BUTANONE), 64091-91-4, Dose [Inhibitor]: 0, 170 PPM IN DRINKING WATER FOR 22WK BEGINNING 1 WK PRIOR TO CARCINOGEN TREATMENT (STUDY DURATION:101 WK), Species: RAT, Strain/Sex: F344/MALE, Target Tissue: Type of Lesion: LIVER: TUMOR, Dose [Carcinogen]: 1.5 MG/KG 3/WK FOR 20 WK, Promoter: NONE USED) 11/32 (34%), 5/20 (25%), 26%, not significant; (Carcinogen: 4-(METHYLNITROSAMINO)-1-(3-PYRIDYL-1-BUTANONE), 64091-91-4, Dose [Inhibitor]: 0, 170 PPM IN DRINKING WATER FOR 22 WK BEGINNING 1 WK PRIOR TO CARCINOGEN TREATMENT (STUDY DURATION:101 WK), Species: RAT, Strain/Sex: F344/MALE, Target Tissue: Type of Lesion: LUNG:TUMOR, Dose [Carcinogen]: 1.5 MG/KG 3/WK FOR 20 WK, Promoter: NONE USED) 15/32 (47%), 4/20 (20%), 57%, not significant; (Carcinogen: 4-(METHYLNITROSAMINO)-1-(3-PYRIDYL-1-BUTANONE), 64091-91-4, Dose [Inhibitor]: 0, 170 PPM IN DRINKING WATER FOR 22 WK BEGINNING 1 WK PRIOR TO CARCINOGEN TREATMENT (STUDY DURATION:101 WK), Species: RAT, Strain/Sex: F344/MALE, Target Tissue: Type of Lesion: NASAL CAVITY: TUMOR, Dose [Carcinogen]: 1.5 MG/KG 3/WK FOR 20 WK, Promoter: NONE USED) 6/32 (19%), 3/20 (15%), 21%, not significant; (Carcinogen: 4-(METHYLNITROSAMINO)-1-(3-PYRIDYL-1-BUTANONE), 64091-91-4, Dose [Inhibitor]: 0, 680 PPM IN DRINKING WATER FOR 22 WK BEGINNING 1 WK PRIOR TO CARCINOGEN TREATMENT (STUDY DURATION:101 WK), Species: RAT, Strain/Sex: F344/MALE, Target Tissue: Type of Lesion: LUNG:TUMOR, Dose [Carcinogen]: 1.5 MG/KG 3/WK FOR 20 WK, Promoter: NONE USED) 15/32 (47%), 2/20 (10%), 79%, p<0.01. The “tumour outcome (control, treated, inhibition, significance)” value runs as follows: (Carcinogen: 4-(METHYLNITROSAMINO)-1-(3-PYRIDYL-1-BUTANONE), 64091-91-4, Dose [Inhibitor]: 0, 680 PPM IN DRINKING WATER FOR 22 WK BEGINNING 1 WK PRIOR TO CARCINOGEN TREATMENT (STUDY DURATION: 101 WK), Species: RAT, Strain/Sex: F344/MALE, Target Tissue: Type of Lesion: NASAL CAVITY: TUMOR, Dose [Carcinogen]: 1.5 MG/KG 3/WK FOR 20 WK, Promoter: NONE USED) 6/32 (19%), 5/20 (25%), -32%, not significant; (Carcinogen: 4-METHYLNITROSAMINO-1-(3-PYRIDYL)-1-BUTANONE, 64091-91-4, Dose [Inhibitor]: 0, 1120 PPM IN DRINKING WATER 2 WK PRIOR TO CARCINOGEN AND CONTINUING FOR 13 WK (STUDY DURATION: 29 WK), Species: MOUSE, Strain/Sex: A/J/FEMALE, Target Tissue: Type of Lesion: LUNG: ADENOMA, Dose [Carcinogen]: 11.65 MG/KG IN CORN OIL 3/WK FOR 10 WK, Promoter: NONE USED) 100%, 100%, 0%, not significant; (Carcinogen: 7,12-DIMETHYLBENZ[A]ANTHRACENE, 57-97-6, Dose [Inhibitor]: 0, 500 MG/L IN DRINKING WATER BEGINNING AT 27 D OF AGE AND CONTINUING TO 59 D OF AGE (STUDY DURATION: 52 WK), Species: RAT, Strain/Sex: SPRAGUE-DAWLEY/FEMALE, Target Tissue: Type of Lesion: MAMMARY GLAND: BENIGN TUMOR, Dose [Carcinogen]: 0.5 MG/100 G BW ONCE AT 55 D OF AGE, Promoter: NONE USED) 71/73 (97%), 65/70 (93%), 4%, not significant; (Carcinogen: 7,12-DIMETHYLBENZ[A]ANTHRACENE, 57-97-6, Dose [Inhibitor]: 0, 500 MG/L IN DRINKING WATER BEGINNING AT 27 D OF AGE AND CONTINUING TO 59 D OF AGE (STUDY DURATION: 52 WK), Species: RAT, Strain/Sex: SPRAGUE-DAWLEY/FEMALE, Target Tissue: Type of Lesion: MAMMARY GLAND: CARCINOMA, Dose [Carcinogen]: 0.5 MG/100 G BW ONCE AT 55 D OF AGE, Promoter: NONE USED) 42/73 (58%), 20/70 (29%), 50%, p<0.001; (Carcinogen: 7,12-DIMETHYLBENZ[A]ANTHRACENE, 57-97-6, Dose [Inhibitor]: 0, 500 MG/L IN DRINKING WATER BEGINNING AT 59 D OF AGE AND CONTINUING FOR DURATION OF STUDY (STUDY DURATION: 48 WK), Species: RAT, Strain/Sex: SPRAGUE-DAWLEY/FEMALE, Target Tissue: Type of Lesion: MAMMARY GLAND: BENIGN TUMOR, Dose [Carcinogen]: 0.5 MG/100 G BW ONCE AT 55 D OF AGE, Promoter: NONE USED) 70/72 (97%), 55/62 (89%), 8%, p,0.05; (Carcinogen: 7,12-DIMETHYLBENZ[A]ANTHRACENE, 57-97-6, Dose [Inhibitor]: 0, 500 MG/L IN DRINKING WATER BEGINNING AT 59 D OF AGE AND CONTINUING FOR DURATION OF STUDY (STUDY DURATION: 48 WK), Species: RAT, Strain/Sex: SPRAGUE-DAWLEY/FEMALE, Target Tissue: Type of Lesion: MAMMARY GLAND: CARCINOMA, Dose [Carcinogen]: 0.5 MG/100 G BW ONCE AT 55 D OF AGE, Promoter: NONE USED) 39/72 (54%), 31/62 (50%), 7%, not significant. Besides, the “tumour outcome (control, treated, inhibition, significance)” value (Carcinogen: 7,12-DIMETHYLBENZ[A]ANTHRACENE, 57-97-6, Dose [Inhibitor]: 0, 500 MG/L IN DRINKING WATER OF 58 DAY OLD VIRGIN RATS (STUDY DURATION: 56 WK), Species: RAT, Strain/Sex: SPRAGUE-DAWLEY/FEMALE, Target Tissue: Type of Lesion: MAMMARY GLAND: CARCINOMA, Dose [Carcinogen]: 2 MG/100 G BW ONCE AT 55 D OF AGE, Promoter: NONE USED) is given as 95%, 100%, -5%, not significant.
